Values quoted from earlier work in patent publication US20140080864A1, “PHARMACETUICAL COMPOSITION COMPRISING DROTAVERINE” (CHINOIN PRIVATE CO LTD, priority 2011, published 2014).
Where a name gives a salt, the structure may show the parent alone.

Details: oral dose, healthy individuals; mean SD

CCOc1ccc(/C=C2\NCCc3cc(OCC)c(OCC)cc32)cc1OCC [drotaverine hydrochloride, 1-(3,4-diethoxybenzylidene)-6,7-diethoxy-1,2,3,4-tetrahydroisoquinoine]
absolute bioavailability (mean): 58.2%
